Patent publication EP0334119A1, “Compounds for inhibiting the biosynthesis of lipoxygenase-derived metabolites of arachidonic acid” (BOEHRINGER INGELHEIM PHARMACEUTICALS INC., priority 1988, dated 1989)
Where two headings read alike, the source gives them in different places.

Assays:
[1] = system: 5-lipoxygenase; assay: Inhibition of antigen-induced, SRS-A mediated bronchioconstriction in conscious guinea pigs; format: in vivo; conditions: i.p. in 5% Tween 80 suspension, 30mg/kg, 60 minutes before antigen challenge; % inhibition of the decrease in Cdyn
From the text: Inhibition of Antigen-Induced, SRS-A Mediated Bronchioconstriction in Conscious Guinea Pigs
This model is used to measure the ability of a drug to inhibit 5-lipoxygenase in vivo. SRS-A (slow reacting substance of anaphylaxis - also referred to as leukotrienes C₄, D₄ and E₄) is released by cells in the sensitized guinea pig upon stimulation by antigen, resulting in bronchioconstriction and change in pulmonary function. The leukotrienes are biosynthesized from arachidonic acid by the enzyme 5-lipoxygenase. Therefore, an inhibitor of 5-lipoxygenase could reduce the production of SRS-A and attenuate the bronchioconstriction.
Male outbred Hartley strain albino guinea pigs (250-300 grams) were sensitized by i.p. injection of ovalbumin (3mg/kg) followed by an i.p. injection of Bordetella pertussis (about 5x10⁹ killed organisms) and studied 14 days later.
Sensitized guinea pigs (fasted for 18 hours) were anesthesized and a catheter-tip pressure transducer was inserted into the pleural space of each animal. The animals are pretreated (i.p.) with pyrilamine (10mg/kg) and indomethacin (10mg/kg) to antagonize the effects of histamine and inhibit cyclooxygenase respectively. Cyclooxygenase products and histamine are released endogenously along with SRS-A, upon antigen challenge. Test compound is also administered i.p., 60 minutes before antigen challenge.
The guinea pigs were placed in a "head out" plethysmograph and allowed to recover from anesthesia. Airflow into the respiratory system, pleural pressure and airflow signals were measured, and tidal volume, dynamic pulmonary compliance (Cdyn) and breathing frequency were calculated according to a published technique (E.G. Damen et al., Toxicol. Appl. Pharmacol., 1982, 64, 465). After baseline values for pulmonary function were obtained, the animals were challenged by aerosolized ovalbumin. The overall changes in pulmonary function parameters were determined by calculating the mean changes from baseline during the period 5 to 15 minutes following antigen challenge.
Drug efficacy was determined by comparing the mean of the percent decrease in Cdyn from baseline in drug treated animals (N=4-6) to control animals (N=10-12).

[2] = target: T1, 5-lipoxygenase (Homo sapiens, UniProt P09917); assay: Inhibition of 5-lipoxygenase (5-HETE biosynthesis) in human polymorphonuclear leukocytes; format: cell-based; conditions: human PMN's, 5-HETE band vs control; test concentration 1 microM; read-out: Inhibition of 5-LO % at 1 M
T1 construct: Human PMN's (5 x 10⁶ cells/0.5 mL) in pH 7.2 phosphate buffer; endogenous in cells; host or cells: human polymorphonuclear leukocytes (PMN)
T1 sequence (P09917 1-674): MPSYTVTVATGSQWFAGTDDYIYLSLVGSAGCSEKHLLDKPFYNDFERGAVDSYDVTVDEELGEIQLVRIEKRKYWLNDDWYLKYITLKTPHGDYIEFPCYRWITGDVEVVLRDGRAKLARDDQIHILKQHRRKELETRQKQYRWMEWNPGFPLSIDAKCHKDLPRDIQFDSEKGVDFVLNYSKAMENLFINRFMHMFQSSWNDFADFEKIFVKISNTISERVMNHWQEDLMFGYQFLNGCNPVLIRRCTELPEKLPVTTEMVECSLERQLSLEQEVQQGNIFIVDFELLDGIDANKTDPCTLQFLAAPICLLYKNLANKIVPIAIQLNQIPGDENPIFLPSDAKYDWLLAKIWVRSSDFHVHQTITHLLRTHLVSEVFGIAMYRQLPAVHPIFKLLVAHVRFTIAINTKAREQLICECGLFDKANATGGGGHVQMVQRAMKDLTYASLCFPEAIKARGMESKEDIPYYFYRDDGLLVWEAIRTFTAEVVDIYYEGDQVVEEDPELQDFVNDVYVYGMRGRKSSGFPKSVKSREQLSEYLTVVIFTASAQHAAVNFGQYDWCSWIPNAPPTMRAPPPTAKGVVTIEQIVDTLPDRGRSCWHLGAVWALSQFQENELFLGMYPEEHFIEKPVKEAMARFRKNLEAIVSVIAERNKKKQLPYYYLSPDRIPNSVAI
Experimental: Inhibition of 5-Lipoxygenase in Human Polymorphonuclear Leukocytes (PMN's)
The inhibition of 5-lipoxygenase is measured by determining whether and to what extent test compounds inhibit the amount of 5-HETE biosynthesized by human PMN's. 5-HETE biosynthesis serves as a marker for arachidonic acid metabolism by 5-lipoxygenase.
Human PMN's (5 x 10⁶ cells/0.5 mL) in pH 7.2 phosphate buffer containing Ca²⁺ (0.6 mM) and Mg²⁺ (1.0 mM) were incubated with test compound for 15 minutes at 37°C with shaking. Calcium ionophore A23187 (0.25 mM, 0.01 mL) and [¹⁴C] arachidonic acid (0.10 microCi in 0.025 mL 0.01N NaOH) were added, and the mixture incubated another 2.5 minutes. The reaction was terminated by the addition of 0.025 mL of 1.0 N HCl. The mixture was then extracted with ethyl acetate-methylene chloride (2:3) supplemented with 12 microgram/mL cold arachidonic acid to reduce degradation of the metabolites. After concentrating the organic phase, the number of microlitres containing 5 x 10⁴ cpm was determined and that volume applied to a silica gel plate. The plate was developed in methylene-chloride-methanol-acetic acid-water (90:8:1:0.8), air dried, and counted on a Berthold linear TLC analyzer. The integrated area of the 5-HETE band was determined and compared with the control (no drug).
In cases where the IC₅₀ was determined, the result is shown in microM.

[3] = system: 5-lipoxygenase; assay: Inhibition of antigen-induced, late phase inflammatory cell infiltration in guinea pigs; format: in vivo; conditions: 60 minutes before antigen challenge, lung lavage four hours after challenge
From the text: Inhibition of Antigen-Induced, Late Phase Inflammatory Cell Infiltration in Guinea Pigs
This model is used to measure the ability of a drug to inhibit 5-lipoxygenase in vivo. In addition to SRS-A, a chemotactic substance LTB₄ is also released by cells in the sensitized guinea pig lung upon stimulation by antigen. As a result there is a measurable influx of cells into the lung. Therefore, an inhibitor of 5-lipoxygenase could reduce the formation of LTB₄ and thereby reduce the cell influx into the lung.
Male outbred Hartley strain albino guinea pigs (250-300 grams) were sensitized to ovalbumin as in the procedure for inhibition of antigen-induced, SRS-A mediated bronchioconstriction in conscious guinea pigs.
Sensitized guinea pigs were fasted and pretreated with pyrilamine and indomethacin as in bronchioconstriction testing procedure. Test compounds, suspended in 1% acacia, were administered 60 minutes before antigen challenge. […] Whole lung lavage was performed with three 5 mL aliquots of normal saline buffered with sodium bicarbonate.
Total cell counts were performed on a Coulter Counter, and differential cell counts were performed. Compounds were evaluated for their ability to alter the antigen-induced total cell influx and, more specifically, neutrophil (PMN) influx.

[4] = system: A23187-Induced LTB₄ Generation; assay: Ex vivo inhibition of A23187-induced LTB4 generation in squirrel monkey blood; set-up: species or system Squirrel Monkeys; conditions: Primates, 1 h, 60 min after dosing, vehicle per footnotes 2-4
Experimental: Ex Vivo Inhibition of A23187-Induced LTB₄ Generation in Squirrel Monkeys.
Incubation of squirrel monkey whole blood with calcium ionophore A23187 stimulates the production of LTB₄. This LTB₄ production can be inhibited by a lipoxygenase inhibitor in vitro by incubating the blood with the inhibitor prior to A23187 challenge. By dosing squirrel monkeys with a lipoxygenase inhibitor prior to withdrawal of a blood sample, one can determine the ability of the lipoxygenase inhibitor to be absorbed into the bloodstream by measuring the inhibition of A23187 induced LTB₄ production ex vivo.
Squirrel monkeys (400-650g) were fasted for 18 hours, anesthetized and dosed either orally or intraperitoneally with test compound. After the desired time period, blood was withdrawn from the femoral vein. The blood (0.5 mL) was heparinized, preincubated at 37°C for 5 minutes and stimulated with A23187 in DMSO to give a final concentration of 30 microM. The reaction was terminated with EGTA (final concentration 10 microM), and the blood centrifuged. Levels of LTB₄ in the plasma were then determined by radioimmunoassay.
The results shown in Table 4 illustrate the ability of a prodrug of type 2a or 2b to be absorbed after ip or po dosing compared to the parent compound 1a.

With `Cc1cc(C=Cc2cccnc2)cc(C)c1O` [Compound 1x] the “% Inhibition of Bronchioconstriction” value [1] was 39% and the inhibition at 1 µM [2] was 62%.
In the case of `CCCc1cc(C=Cc2cccs2)cc(OC)c1O` [Compound 1f], the “% Inh. PMN” value ([3]; 30 mg/kg ip) was 54%, the “% Inh. Total Cells” value ([3]; 30 mg/kg ip) was 77% and the “% Inhibition of Bronchioconstriction” value [1] was 57%. It also gave an inhibition at 1 µM [2] of 76%.
`Cc1cc(C=Cc2ccsc2)cc(C)c1O` [Compound 1o] was tested, and the “% Inhibition of Bronchioconstriction” value [1] was 26% and the inhibition at 1 µM [2] was 84%.
For `CCc1cc(C=Cc2cccs2)cc(OC)c1O` [Compound 1e], the “% Inhibition of Bronchioconstriction” value [1] was 51% and the inhibition at 1 µM [2] was 85%.
`Cc1cc(C=Cc2cccs2)cc(C)c1O` [Compound 1a, 2,6-Dimethyl-4-[2-(2-thienyl)ethenyl]phenol] was tested, and the “% Inh. PMN” value ([3]; 30 mg/kg ip) was 95%, the “% Inh. Total Cells” value ([3]; 30 mg/kg ip) was 78% and the “% Inh. PMN” value ([3]; 30 mg/kg po) was 14%. For the same compound, the “% Inh. Total Cells” value ([3]; 30 mg/kg po) was 51%, the “% Inhibition of Bronchioconstriction” value [1] was 75% and the inhibition at 30 mg/kg ([4]; 30 mg/kg ip, read-out: Percent Inh. Monkey 2) was 12%. It also gave an inhibition at 30 mg/kg ([4]; 30 mg/kg ip, read-out: Percent Inh. Monkey 3) of 4%, an inhibition at 30 mg/kg ([4]; 30 mg/kg ip, read-out: Percent Inh. Monkey #1) of 47% and an inhibition at 30 mg/kg ([4]; 30 mg/kg po, read-out: Percent Inh. Monkey 2) of 0%. For the same compound, the inhibition at 30 mg/kg ([4]; 30 mg/kg po, read-out: Percent Inh. Monkey 3) was 0%, the inhibition at 30 mg/kg ([4]; 30 mg/kg po, read-out: Percent Inh. Monkey #1) was 18% and the inhibition at 1 µM [2] was 91%.
With `CC(C)c1cc(C=Cc2cccnc2)cc(C(C)C)c1O` [Compound 1ab] the “% Inhibition of Bronchioconstriction” value [1] was 34% and the inhibition at 1 µM [2] was 73%.
`COc1cc(C=Cc2cccs2)cc(C)c1O` [Compound 1d, 2-Methoxy-6-methyl-4-[2-(2-thienyl)ethenyl]phenol] was tested, and the “% Inhibition of Bronchioconstriction” value [1] was 41% and the inhibition at 1 µM [2] was 65%.
